According to US20070021412A1, “Treatment of gastrointestinal dysfunction and related stress with an enantiomerically-pure (S) 2,3-benzodiazepine” (Vela Pharmaceuticals, Inc., priority 2003, published 2007):

Columns and labels:
[1] = test system: Colonic Propulsive Motility; experiment: Glass Bead Test (stretch-stimulated colonic propulsion); assay type: in vivo, mouse; details: for Expulsion Time Mean ± SEM: 30 minutes before bead, cutoff 30 minutes, in min
Description: In the test, usually performed in mice, a 3-mm glass bead is inserted through the anus into the distal colon (using a glass rod) to a depth of 2 cm. The time to expel the glass bead is then measured; normally, the glass bead is expelled in approximately 10 minutes. This model is especially sensitive to compounds with inhibitory effects on stretch-stimulated propulsive motor activity; as such, it is often used as an animal model for IBS. A test compound that inhibits stretch-stimulated-colonic propulsive motility may be used to treat gastrointestinal dysfunction, including IBS. Both enantiomerically-pure (R)- and (S)-tofisopam inhibited propulsive motility to a greater extent than the racemate.
The glass bead test is commmonly used to evaluate the ability of compounds to affect stimulated colonic propulsion. In the test, usually performed in mice, a 3-mm glass bead is inserted through the anus into the distal colon (using a glass rod) to a depth of 2 cm. The time to expel the glass bead is then measured; normally, the glass bead is expelled in approximately 10 minutes. This model is especially sensitive to compounds with inhibitory effects on stretch-stimulated propulsive motor activity; as such, it is often used as an animal model for IBS.
In each study, (RS)-, (R)- and (S)-tofisopam were evaluated for their ability to increase or decrease the time for expulsion of the glass bead. Test compounds were administered 30 minutes prior to insertion of the bead, and a maximum time cutoff of 30 minutes to expulsion was used.

[2] = test system: Gastrointestinal Propulsive Motility; experiment: Charcoal Meal Test (basal gastrointestinal propulsion); assay type: in vivo, rat; details: for % Inhibition (gastrointestinal propulsive motility): numbers in parentheses indicate % increase
Description: The charcoal meal test is a standard method for evaluating the effect of compounds on basal, nonstimulated propulsive motility of the stomach and small intestine. It is generally considered predictive of a compound's ability to inhibit or accelerate basal gastric propulsion in humans. In the test, usually performed in rats, nonactivated charcoal powder is administered by oral gavage. Sixty minutes after administration of the charcoal suspension, rats were sacrificed by CO2 inhalation, the stomach and small intestine were removed, and the distance between the pylorus and the furthest progression of the charcoal meal was measured and compared to the distance between the pylorus and the ileocecal junction. This model is especially sensitive to compounds with the ability to increase or decrease basal propulsive motor activity of the stomach and small intestine. It is therefore often used to predict the potential for compounds to exert antidiarrheal or anticonstipatory effects, as well as to predict the potential for compounds to produce diarrhea or constipation as a side-effect. Two charcoal meal test were performed in rats. In each study, (RS)-, (R)-and (S)-tofisopam were evaluated for their for their ability to increase or decrease the percent of the intestine traversed by a charcoal meal. Test compounds were administered 30 minutes prior to administration of the charcoal meal.

[3] = test system: visceral hypersensitivity, pain, and bloating induced by colonic distension; experiment: Visceral hypersensitivity, pain and bloating test (abdominal contractions after colonic distension and acetic acid); assay type: in vivo, rat; details: 32 mg/kg p.o.
Description: In yet another gastrointestinal disorder model, the visceral pain and bloating test, the ability of (R)- and (S)-tofisopam to inhibit abdominal contractions in the rat was investigated. (R)- and (S)-tofisopam were able to inhibit abdominal contractions to a greater extent than racemic tofisopam. The effects of (R)-tofisopam, (S)-tofisopam, and (RS)-tofisopam were evaluated for alleviating visceral hypersensitivity, pain, and bloating. […] Eur. J. Pharmacol. 324: 211-217 (1997); Langlois et al. Eur. J. Pharmacol. 318: 141-144 (1996)). The acetic acid makes the colon hypersensitive, modeling the visceral hypersensitivity seen in IBS. The colonic distension models the pain and bloating seen in IBS, and causes abdominal contractions in rats. In the control group 13.8±2.0 abdominal contractions were measured over the 10-minute period of observation.

[4] = test system: stress-induced ulcer formation; experiment: Water immersion stress-induced ulcers test; assay type: in vivo, rat; details: for Ulceration Index: ulcer score × percentage of stomachs showing ulcers; for Score for the Presence of Ulcers Mean ± SEM: score 0-4, N = 8

With `CC[C@@H]1C(C)=NN=C(c2ccc(OC)c(OC)c2)c2cc(OC)c(OC)cc21` [(S)-tofisopam, (S)-1-(3,4-dimethoxyphenyl)-4-methyl-5-ethyl-7,8-dimethoxy-5H-2,3-benzodiazepine] the “% Inhibition (colonic expulsion)” value ([1]; 32 mg/kg IP) was 100%, the “Expulsion Time Mean ± SEM” value ([1]; 32 mg/kg IP) was 30.0 ± 0.0 and the “% Inhibition (colonic expulsion)” value ([1]; 64 mg/kg IP) was 100%. The “Expulsion Time Mean ± SEM” value ([1]; 64 mg/kg IP) was 30.0 ± 0.0, the “% Intestine Traversed, Mean ± SEM” value ([2]; first experiment, 64 mg/kg IP) was 75.7 ± 3.1% and the “% Inhibition (gastrointestinal propulsive motility)” value ([2]; first experiment, 64 mg/kg IP) was 7.1%. For the same compound, the “% Intestine Traversed, Mean ± SEM” value ([2]; second experiment, 4 mg/kg IP) was 79.1 ± 1.3%, the “% Intestine Traversed, Mean ± SEM” value ([2]; second experiment, 8 mg/kg IP) was 80.9 ± 1.9% and the “% Intestine Traversed, Mean ± SEM” value ([2]; second experiment, 16 mg/kg IP) was 73.3 ± 1.2%. For the same compound, the “% Inhibition (gastrointestinal propulsive motility)” value ([2]; second experiment, 16 mg/kg IP) was 1.9%, the “% Intestine Traversed, Mean ± SEM” value ([2]; second experiment, 32 mg/kg IP) was 60.8 ± 2.8 % and the “% Inhibition (gastrointestinal propulsive motility)” value ([2]; second experiment, 32 mg/kg IP) was 19.7%. The “number of abdominal cramps” value ([3]; vehicle control 18.8±1.8 cramps) was 10.4±1.3 cramps, the “decrease of abdominal cramps” value ([3]; versus vehicle control) was 45% and the “Ulceration Index” value ([4]; 16 mg/kg IP) was 313. The “% of Stomachs Showing Ulcers” value ([4]; 32 mg/kg IP) was 38%, the “Score for the Presence of Ulcers Mean ± SEM” value ([4]; 32 mg/kg IP) was 1.1 ± 0.4 and the “Ulceration Index” value ([4]; 32 mg/kg IP) was 42. The “% of Stomachs Showing Ulcers” value ([4]; 64 mg/kg IP) was 38%, the “Score for the Presence of Ulcers Mean ± SEM” value ([4]; 64 mg/kg IP) was 1.3 ± 0.3 and the “Ulceration Index” value ([4]; 64 mg/kg IP) was 47.
